Source: ChEMBL document CHEMBL1148644, “Human PEPT1 pharmacophore distinguishes between dipeptide transport and binding” (J Med Chem, 2006)
Where a SMILES comes first, the peptide text is derived from it. [ ]: non-standard residue; d: D form. Tic = O=C(O)[C@@H]1Cc2ccccc2CN1; Sar = CNCC(=O)O

How the values were obtained:
[1] = target: T1, Solute carrier family 15 member 1 (Homo sapiens, UniProt P46059); experiment: Binding affinity to human PEPT1 assessed as inhibition of [14C]Gly-Sar uptake in MDCK cells; type: functional, cell-based
T1 sequence (P46059 whole entry): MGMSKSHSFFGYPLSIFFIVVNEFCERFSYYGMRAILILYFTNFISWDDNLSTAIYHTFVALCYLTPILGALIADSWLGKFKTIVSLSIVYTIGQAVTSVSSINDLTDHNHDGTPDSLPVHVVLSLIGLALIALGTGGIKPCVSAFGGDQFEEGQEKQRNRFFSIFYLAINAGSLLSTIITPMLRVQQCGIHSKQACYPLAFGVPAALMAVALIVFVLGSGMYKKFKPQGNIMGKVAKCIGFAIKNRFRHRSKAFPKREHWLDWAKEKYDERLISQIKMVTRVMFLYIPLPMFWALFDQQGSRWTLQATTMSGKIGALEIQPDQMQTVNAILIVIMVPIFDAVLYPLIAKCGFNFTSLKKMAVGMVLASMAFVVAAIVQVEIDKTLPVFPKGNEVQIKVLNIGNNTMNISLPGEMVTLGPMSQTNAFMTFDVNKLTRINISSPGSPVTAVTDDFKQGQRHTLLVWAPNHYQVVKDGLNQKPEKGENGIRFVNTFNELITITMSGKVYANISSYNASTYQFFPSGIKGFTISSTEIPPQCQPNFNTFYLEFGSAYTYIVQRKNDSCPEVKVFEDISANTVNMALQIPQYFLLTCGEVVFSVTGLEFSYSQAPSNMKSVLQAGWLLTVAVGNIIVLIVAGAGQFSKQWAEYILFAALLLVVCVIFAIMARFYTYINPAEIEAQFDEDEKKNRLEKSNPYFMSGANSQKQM

[2] = target: T1, Solute carrier family 15 member 1; experiment: Activation of human PEPT1 expressed in MDCK cells; type: functional, cell-based

| Compound | IC50 ([1]; read-out: IC50) [µM] | EC50 [2] [µM] | IC50 ([1]; mdck) |
| --- | --- | --- | --- |
| N[C@@H](CC(=O)O)C(=O)NCC(=O)O (H-Asp-Gly-OH) | 810 | 440 |  |
| C[C@H](N)C(=O)N[C@@H](C)C(=O)O (H-Ala-Ala-OH) | 250 | 80 |  |
| O=C(O)C[C@H](NC(=O)[C@@H]1CCCN1)C(=O)O (H-Pro-Asp-OH) | 9160 | > 5000 |  |
| NCCCC[C@H](N)C(=O)N[C@@H](Cc1c[nH]c2ccccc12)C(=O)O (H-Lys-Trp-OH) | 660 |  |  |
| N[C@@H](Cc1c[nH]c2ccccc12)C(=O)N[C@@H](Cc1ccc(O)cc1)C(=O)O (H-Trp-Tyr-OH) | 80 |  |  |
| CC(C)[C@H](N)C(=O)N[C@H](C(=O)O)C(C)C [VAL-VAL] (H-Val-Val-OH) | 210 | 70 |  |
| NCC(=O)N[C@@H](CC(=O)O)C(=O)O (H-Gly-Asp-OH) | 380 | 550 |  |
| CC(C)[C@H](N)C(=O)N[C@H](C(=O)N[C@H](C(=O)O)C(C)C)C(C)C (H-Val-Val-Val-OH) | 230 | 210 |  |
| CC(C)C[C@H](NC(=O)[C@@H]1CCCN1)C(=O)O (H-Pro-Leu-OH) | 620 | 250 |  |
| N[C@@H](CCC(=O)O)C(=O)NCC(=O)O (H-Glu-Gly-OH) | 390 | 510 |  |
| NC(N)=NCCC[C@H](N)C(=O)NCC(=O)O (H-Arg-Gly-OH) | 390 | 270 |  |
| N[C@@H](Cc1ccc(O)cc1)C(=O)N[C@@H](Cc1ccc(O)cc1)C(=O)O (H-Tyr-Tyr-OH) | 60 | 60 |  |
| C[C@H](NC(=O)[C@@H](N)Cc1ccc(O)cc1)C(=O)O | 110 | 100 |  |
| O=C(O)[C@@H]1CCCN1C(=O)[C@@H]1CCCN1 (H-Pro-Pro-OH) | 800 | 700 |  |
| C[C@H](N)C(=O)N[C@@H](Cc1ccc(O)cc1)C(=O)O (H-Ala-Tyr-OH) | 170 | 60 |  |
| NCCCC[C@H](NC(=O)CN)C(=O)O (H-Gly-Lys-OH) | 1250 | 750 |  |
| N[C@@H](Cc1c[nH]c2ccccc12)C(=O)N[C@@H](Cc1c[nH]c2ccccc12)C(=O)O (H-Trp-Trp-OH) | 250 |  |  |
| NCC(=O)N[C@@H](Cc1ccccc1)C(N)=O (H-Gly-Phe-NH2) |  |  | Not Active |
| N[C@@H](Cc1ccc(O)cc1)C(=O)N[C@@H](Cc1c[nH]c2ccccc12)C(=O)O (H-Tyr-Trp-OH) | 100 |  |  |
| O=C(O)[C@H](CO)NC(=O)[C@@H]1CCCN1 (H-Pro-Ser-OH) | > 16000 | 1600 |  |
| NCCCC[C@H](NC(=O)[C@@H](N)CCC(=O)O)C(=O)O (H-Glu-Lys-OH) | 720 | 310 |  |
| NCC(=O)NCC(=O)O (H-Gly-Gly-OH) | 820 | 480 |  |
| N[C@@H](Cc1c[nH]cn1)C(=O)NCC(=O)O (H-His-Gly-OH) | 340 | 280 |  |
| N[C@@H](Cc1c[nH]cn1)C(=O)N[C@@H](Cc1c[nH]c2ccccc12)C(=O)O | 950 | 190 |  |
| NC(N)=NCCC[C@H](NC(=O)[C@@H](N)CCCN=C(N)N)C(=O)O (H-Arg-Arg-OH) | 7310 |  |  |

| Compound | IC50 ([1]; read-out: IC50) [µM] | EC50 [2] [µM] | IC50 ([1]; mdck) |
| --- | --- | --- | --- |
| N[C@@H](CC(=O)O)C(=O)N[C@@H](Cc1c[nH]c2ccccc12)C(=O)O (H-Asp-Trp-OH) | 1310 | 470 |  |
| CC(C)C[C@H](NC(=O)CN)C(=O)O | 70 | 170 |  |
| NCCC[C@H](NC(=O)[C@@H](N)CCCN)C(=O)O |  |  | Not Active |
| O=C(O)CC[C@H](NC(=O)[C@@H]1CCCN1)C(=O)O (H-Pro-Glu-OH) | 12300 | > 5000 |  |
| NCC(=O)N[C@@H](Cc1ccccc1)C(=O)O (H-Gly-Phe-OH) | 170 | 130 |  |
| NCC(=O)NCC(=O)NCC(N)=O (H-Gly-Gly-Gly-NH2) |  |  | Not Active |
| NC(=O)CC[C@H](N)C(=O)N[C@@H](CCC(=O)O)C(=O)O (H-Gln-Glu-OH) | 510 | 420 |  |
| NCCCC[C@H](N)C(=O)N[C@@H](CCC(=O)O)C(=O)O (H-Lys-Glu-OH) | 820 | 530 |  |
| N[C@@H](Cc1ccc(O)cc1)C(=O)NCC(=O)O | 330 | 240 |  |
| NCC(=O)N1CCC[C@H]1C(=O)O [GLYCYL PROLINE] (H-Gly-Pro-OH) | 330 | 130 |  |
| NCC(=O)N[C@@H](Cc1ccc(O)cc1)C(N)=O (H-Gly-Tyr-NH2) |  |  | Not Active |
| NCCCC[C@H](NC(=O)[C@@H](N)CCCN=C(N)N)C(=O)O (H-Arg-Lys-OH) | 8110 |  |  |
| NCCCC[C@H](NC(=O)[C@@H]1CCCN1)C(=O)O (H-Pro-Lys-OH) | > 16000 |  |  |
| NCCCC[C@H](N)C(=O)NCC(=O)O (H-Lys-Gly-OH) | 380 | 320 |  |
| NC(=O)[C@@H]1Cc2ccccc2CN1C(=O)[C@@H](N)Cc1ccc(O)cc1 (H-Tyr-[Tic]-NH2) |  |  | Not Active |
| N[C@@H](Cc1c[nH]c2ccccc12)C(=O)NCC(=O)O (H-Trp-Gly-OH) | 730 | 260 |  |
| NC(=O)[C@H](Cc1ccc(O)cc1)NC(=O)[C@@H](N)Cc1ccc(O)cc1 (H-Tyr-Tyr-NH2) | 9110 |  |  |
| C[C@H](N)C(=O)N[C@@H](CC(=O)O)C(=O)O (H-Ala-Asp-OH) | 450 | 230 |  |
| CC(C)[C@H](NC(=O)[C@@H](N)Cc1c[nH]c2ccccc12)C(=O)O (H-Trp-Val-OH) | 90 | 50 |  |
| NCC(=O)N[C@@H](Cc1c[nH]cn1)C(=O)O (H-Gly-His-OH) | 810 | 400 |  |
| C[C@H](N)C(=O)N[C@@H](CCCCN)C(=O)O (H-Ala-Lys-OH) | 280 | 220 |  |
| N[C@@H](CC(=O)O)C(=O)N[C@@H](CC(=O)O)C(=O)O (H-Asp-Asp-OH) | 630 | 990 |  |
| C[C@H](N)C(=O)N[C@@H](Cc1c[nH]c2ccccc12)C(=O)O (H-Ala-Trp-OH) | 260 | 80 |  |
| O=C(O)CNC(=O)[C@@H]1CCCN1 (H-Pro-Gly-OH) | > 16000 |  |  |
| N[C@@H](Cc1ccccc1)C(=O)NCC(=O)O (H-Phe-Gly-OH) | 170 | 110 |  |

| Compound | IC50 ([1]; read-out: IC50) [µM] | EC50 [2] [µM] | IC50 ([1]; mdck) |
| --- | --- | --- | --- |
| NC(=O)[C@H](Cc1ccc(O)cc1)NC(=O)[C@@H](N)Cc1ccccc1 (H-Phe-Tyr-NH2) | 20 | 30 |  |
| NCCCC[C@H](N)C(=O)N[C@@H](CCCN=C(N)N)C(=O)O (H-Lys-Arg-OH) | 7200 |  |  |
| NC(=O)CNC(=O)[C@@H](N)Cc1ccc(O)cc1 |  |  | Not Active |
| NCCCC[C@H](NC(=O)[C@@H](N)CCCCN)C(=O)O | 10900 |  |  |
| NCCCC[C@H](N)C(=O)N1CCC[C@@H]1C(=O)O | 390 | 190 |  |
| CC(C)C[C@H](NC(=O)CN)C(=O)N[C@@H](Cc1ccccc1)C(=O)O (H-Gly-Leu-Phe-OH) | 980 | 280 |  |
| NCC(=O)N[C@@H](Cc1c[nH]c2ccccc12)C(=O)O (H-Gly-Trp-OH) | 520 | 330 |  |
| N[C@@H](CO)C(=O)N[C@@H](CO)C(=O)O (H-Ser-Ser-OH) | 130 | 140 |  |
| CC(C)[C@H](NC(=O)[C@@H](N)CCCCN)C(=O)O (H-Lys-Val-OH) | 250 | 140 |  |
| CN(CC(=O)O)C(=O)CN [GLYCYLSARCOSINE] (H-Gly-[Sar]-OH) | 1160 | 540 |  |
| CC(C)C[C@H](NC(=O)CN)C(=O)NCC(=O)O (H-Gly-Leu-Gly-OH) | 240 | 210 |  |
| C[C@H](NC(=O)[C@@H](N)Cc1c[nH]c2ccccc12)C(=O)O (H-Trp-Ala-OH) | 260 | 100 |  |
| NCC(=O)N[C@@H](Cc1ccc(O)cc1)C(=O)O (H-Gly-Tyr-OH) | 120 | 140 |  |
| CC(=O)N[C@@H](Cc1ccccc1)C(=O)N[C@@H](Cc1ccc(O)cc1)C(N)=O (Ac-Phe-Tyr-NH2) |  |  | Not Active |
| C[C@H](N)C(=O)N[C@@H](Cc1ccccc1)C(=O)O | 70 | 80 |  |
| NCC(=O)NCC(=O)NCC(=O)NCC(=O)O (H-GGGG-OH) |  |  | Not Active |
| NCC(=O)NCC(=O)NCC(=O)O | 1070 | 580 |  |
| N[C@@H](CCC(=O)O)C(=O)N[C@@H](CCC(=O)O)C(=O)O (H-Glu-Glu-OH) | 620 | 1000 |  |
| NC(=O)CC[C@H](NC(=O)[C@@H](N)CCC(N)=O)C(=O)O (H-Gln-Gln-OH) | 150 | 100 |  |
| CC(C)[C@H](N)C(=O)N[C@@H](Cc1c[nH]c2ccccc12)C(=O)O [VALYLTRYPTOPHAN] (H-Val-Trp-OH) | 100 | 40 |  |
| C[C@H](NC(=O)[C@@H](N)Cc1ccccc1)C(N)=O | 2990 | 850 |  |
| N[C@@H](Cc1c[nH]cn1)C(=O)N[C@@H](Cc1c[nH]cn1)C(=O)O | 400 | 370 |  |
| NCC(=O)N[C@@H](CCC(=O)O)C(=O)O (H-Gly-Glu-OH) | 650 | 1100 |  |
| CC(C)C[C@H](NC(=O)[C@@H](N)CC(C)C)C(=O)O [LEU-LEU] | 170 | 80 |  |
